In patent US20230203043A1, “NOVEL IMIDAZOPYRAZINE DERIVATIVES” (Hoffmann-La Roche Inc., priority 2020, published 2023):
Where a name gives a salt, the structure may show the parent alone.

tested on: Acinetobacter baumannii ATCC17961; test: Antimicrobial susceptibility testing: 90% growth inhibitory concentration (IC90) determination in Iso-Sensitest broth, OD600 growth; format: cell-based; settings: Acinetobacter baumannii, ATCC17961, 16 h, read-out: A. baumannii ATCC 17961 IC90 (uM), strain ATCC 17961, OD600 growth over 16 h
Procedure, shortened: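 Growth inhibition is calculated during the logarithmic phase from OD600 readings taken every 20 minutes across 16 h at 35±2° C. Bacteria at ~5×10^(5) CFU/ml face twofold dilution series (e.g. 50 to 0.097 μM final).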

**Q.** Which IC90 does the source give for `N#CCCn1cc(-c2cnc3c(Nc4ccc(C(=O)N5CCN(C(=O)CCN)CC5)c(Cl)c4)nccn23)c(C(F)(F)F)n1` [Example 256, 3-[4-[8-[4-[4-(3-aminopropanoyl)piperazine-1-carbonyl]-3-chloroanilino]imidazo[1,2-a]pyrazin-3-yl]-3-(trifluoromethyl)pyrazol-1-yl]propanenitrile formate] here?
**A.** 0.358 µM

**Q.** Which IC90 does the source give for `N#CCCn1cc(-c2cnc3c(Nc4ccc(C(=O)N5CCN(C(=O)N[C@H]6CCNC6)CC5)c(Cl)c4)nccn23)c(C(F)(F)F)n1` [Example 259, 4-[2-chloro-4-[[3-[1-(2-cyanoethyl)-3-(trifluoromethyl)pyrazol-4-yl]imidazo[1,2-a]pyrazin-8-yl]amino]benzoyl]-N-[(3S)-pyrrolidin-3-yl]piperazine-1-carboxamide formate] here?
**A.** 0.463 µM

**Q.** `CCc1cc(Nc2nccn3c(-c4cn(CC#N)nc4C(F)(F)F)cnc23)ccc1C(=O)N1CCNCC1` [Example 260, 2-[4-[8-[3-ethyl-4-(piperazine-1-carbonyl)anilino]imidazo[1,2-a]pyrazin-3-yl]-3-(trifluoromethyl)pyrazol-1-yl]acetonitrile formate] was tested. Which IC90 did it give?
**A.** 0.519 µM

**Q.** For `NC1CN(C(=O)N2CCN(C(=O)c3ccc(Nc4nccn5c(-c6c[nH]nc6C(F)(F)F)cnc45)cc3Cl)CC2)C1` [Example 266, [4-(3-aminoazetidine-1-carbonyl)piperazin-1-yl]-[2-chloro-4-[[3-[3-(trifluoromethyl)-1H-pyrazol-4-yl]imidazo[1,2-a]pyrazin-8-yl]amino]phenyl] methanone formate], which IC90 is on record?
**A.** 0.282 µM

same assay, conditions: Acinetobacter baumannii, ATCC17961, 16 h, strain ATCC 17961, OD600 growth over 16 h, read-out: A. baumannii ATCC 17961 IC90

**Q.** `CC1(O)CN(C(=O)c2ccc(Nc3nccn4c(-c5cn(CC#N)nc5C(F)(F)F)cnc34)cc2Cl)C1` [Example 242, 2-[4-[8-[3-chloro-4-(3-hydroxy-3-methylazetidine-1-carbonyl)anilino]imidazo[1,2-a]pyrazin-3-yl]-3-(trifluoromethyl)pyrazol-1-yl]acetonitrile] was tested. Which IC90 did it give?
**A.** 0.33 µM

**Q.** `N#CCn1cc(-c2cnc3c(Nc4ccc(C(=O)N5CC[C@H](O)C5)c(Cl)c4)nccn23)c(C(F)(F)F)n1` [Example 243, 2-[4-[8-[3-chloro-4-[(3S)-3-hydroxypyrrolidine-1-carbonyl]anilino]imidazo[1,2-a]pyrazin-3-yl]-3-(trifluoromethyl)pyrazol-1-yl]acetonitrile] was tested. Which IC90 did it give?
**A.** 0.384 µM

**Q.** How did the IC90 turn out when `N#CCn1cc(-c2cnc3c(Nc4ccc(C(=O)N5CC[C@@H](O)C5)c(Cl)c4)nccn23)c(C(F)(F)F)n1` [Example 244, 2-[4-[8-[3-chloro-4-[(3R)-3-hydroxypyrrolidine-1-carbonyl]anilino]imidazo[1,2-a]pyrazin-3-yl]-3-(trifluoromethyl)pyrazol-1-yl]acetonitrile] was run?
**A.** 0.411 µM

**Q.** How did the IC90 turn out when `O=C(c1ccc(Nc2nccn3c(-c4c[nH]nc4C(F)(F)F)cnc23)cc1Cl)N1CCN(C(=O)[C@]2(O)CCCNC2)CC1` [Example 247, [2-chloro-4-[[3-[3-(trifluoromethyl)-1H-pyrazol-4-yl]imidazo[1,2-a]pyrazin-8-yl]amino]phenyl]-[4-[(3S)-3-hydroxypiperidine-3-carbonyl]piperazin-1-yl]methanone] was run?
**A.** 0.116 µM

**Q.** `O=C(c1ccc(Nc2nccn3c(-c4c[nH]nc4C(F)(F)F)cnc23)cc1Cl)N1CCN(C(=O)[C@@]2(O)CCCNC2)CC1` [Example 248, [2-chloro-4-[[3-[3-(trifluoromethyl)-1H-pyrazol-4-yl]imidazo[1,2-a]pyrazin-8-yl]amino]phenyl]-[4-[(3R)-3-hydroxypiperidine-3-carbonyl]piperazin-1-yl]methanone] was tested. Which IC90 did it give?
**A.** 0.311 µM

**Q.** For `C#CCn1cc(-c2cnc3c(Nc4ccc(C(=O)NCCOCCN)c(Cl)c4)nccn23)c(C(F)(F)F)n1` [Example 249, N-[2-(2-aminoethoxy)ethyl]-2-chloro-4-[[3-[1-prop-2-ynyl-3-(trifluoromethyl)pyrazol-4-yl]imidazo[1,2-a]pyrazin-8-yl]amino]benzamide], which IC90 is on record?
**A.** 0.047 µM

**Q.** Which IC90 does the source give for `NCCOCCNC(=O)c1ccc(Nc2nccn3c(-c4cn(CCF)nc4C(F)(F)F)cnc23)cc1Cl` [Example 250, N-[2-(2-aminoethoxy)ethyl]-2-chloro-4-[[3-[1-(2-fluoroethyl)-3-(trifluoromethyl)pyrazol-4-yl]imidazo[1,2-a]pyrazin-8-yl]amino]benzamide] here?
**A.** 0.084 µM

**Q.** How did the IC90 turn out when `CCc1cc(Nc2nccn3c(-c4cn(CC#N)nc4C(F)(F)F)cnc23)ccc1C(=O)NCC#N` [Example 251, N-(cyanomethyl)-4-[[3-[1-(cyanomethyl)-3-(trifluoromethyl)pyrazol-4-yl]imidazo[1,2-a]pyrazin-8-yl]amino]-2-ethylbenzamide] was run?
**A.** 0.136 µM

**Q.** `Cc1cc(Nc2nccn3c(-c4cn(CCF)nc4C(F)(F)F)cnc23)ccc1C(=O)NCCOCCN` [Example 253, N-[2-(2-aminoethoxy)ethyl]-4-[[3-[1-(2-fluoroethyl)-3-(trifluoromethyl)pyrazol-4-yl]imidazo[1,2-a]pyrazin-8-yl]amino]-2-methylbenzamide] was tested. Which IC90 did it give?
**A.** 0.198 µM

**Q.** Which IC90 does the source give for `Cc1cc(Nc2nccn3c(-c4cn(CC(F)F)nc4C(F)(F)F)cnc23)ccc1C(=O)NCCOCCN` [Example 254, N-[2-(2-aminoethoxy)ethyl]-4-[[3-[1-(2,2-difluoroethyl)-3-(trifluoromethyl)pyrazol-4-yl]imidazo[1,2-a]pyrazin-8-yl]amino]-2-methylbenzamide] here?
**A.** 0.222 µM

**Q.** `N#CCn1cc(-c2cnc3c(Nc4ccc(C(=O)NCCOCCN)c(Cl)c4)nccn23)c(C(F)(F)F)n1` [Example 257, N-[2-(2-aminoethoxy)ethyl]-2-chloro-4-[[3-[1-(cyanomethyl)-3-(trifluoromethyl)pyrazol-4-yl]imidazo[1,2-a]pyrazin-8-yl]amino]benzamide] was tested. Which IC90 did it give?
**A.** 0.37 µM

**Q.** For `Cc1cc(Nc2nccn3c(-c4cn(CC#N)nc4C(F)(F)F)cnc23)ccc1C(=O)NCCOCCN` [Example 262, N-[2-(2-aminoethoxy)ethyl]-4-[[3-[1-(cyanomethyl)-3-(trifluoromethyl)pyrazol-4-yl]imidazo[1,2-a]pyrazin-8-yl]amino]-2-methylbenzamide], which IC90 is on record?
**A.** 1.1 µM

**Q.** For `CCc1cc(Nc2nccn3c(-c4c[nH]nc4C(F)(F)F)cnc23)ccc1C(=O)NCCC1(N)CC1` [Example 263, N-[2-(1-aminocyclopropyl)ethyl]-2-ethyl-4-[[3-[3-(trifluoromethyl)-1H-pyrazol-4-yl]imidazo[1,2-a]pyrazin-8-yl]amino]benzamide], which IC90 is on record?
**A.** 2.43 µM

**Q.** For `CCc1cc(Nc2nccn3c(-c4cn(CC(C)CO)nc4C(F)(F)F)cnc23)ccc1C(=O)NCCOCCN` (centres unmarked) [Example 267, N-[2-(2-aminoethoxy)ethyl]-2-ethyl-4-[[3-[1-(3-hydroxy-2-methylpropyl)-3-(trifluoromethyl)pyrazol-4-yl]imidazo[1,2-a]pyrazin-8-yl]amino]benzamide], which IC90 is on record?
**A.** 0.225 µM

**Q.** Which IC90 does the source give for `CCc1cc(Nc2nccn3c(-c4cn(CC(O)CC)nc4C(F)(F)F)cnc23)ccc1C(=O)NCCOCCN` (centres unmarked) [Example 268, N-[2-(2-aminoethoxy)ethyl]-2-ethyl-4-[[3-[1-(2-hydroxybutyl)-3-(trifluoromethyl)pyrazol-4-yl]imidazo[1,2-a]pyrazin-8-yl]amino]benzamide] here?
**A.** 0.346 µM

**Q.** How did the IC90 turn out when `CCc1cc(Nc2nccn3c(-c4cn(CCN5CCCC5)nc4C(F)(F)F)cnc23)ccc1C(=O)NCCOCCN` [Example 269, N-[2-(2-aminoethoxy)ethyl]-2-ethyl-4-[[3-[1-(2-pyrrolidin-1-ylethyl)-3-(trifluoromethyl)pyrazol-4-yl]imidazo[1,2-a]pyrazin-8-yl]amino]benzamide] was run?
**A.** 1.39 µM

same assay, conditions: strain ATCC 17961, OD600 growth over 16 h, read-out: A. baumannii ATCC 17961 IC90

**Q.** For `N[C@@H]1CN[C@@H](C(=O)N2CCN(C(=O)c3ccc(Nc4nccn5c(-c6c[nH]nc6C(F)(F)F)cnc45)cc3Cl)CC2)C1` [Example 245, [4-[(2R,4S)-4-aminopyrrolidine-2-carbonyl]piperazin-1-yl]-[2-chloro-4-[[3-[3-(trifluoromethyl-1H-pyrazol-4-yl]imidazo[1,2-a]pyrazin-8-yl]amino]phenyl]methanone formate], which IC90 is on record?
**A.** 0.45 µM

**Q.** Which IC90 does the source give for `N#CCCn1cc(-c2cnc3c(Nc4ccc(C(=O)N5CCN(C(=O)NC6CNC6)CC5)c(Cl)c4)nccn23)c(C(F)(F)F)n1` [Example 246, N-(azetidin-3-yl)-4-[2-chloro-4-[[3-[1-(2-cyanoethyl)-3-(trifluoromethyl)pyrazol-4-yl]imidazo[1,2-a]pyrazin-8-yl]amino]benzoyl] piperazine-1-carboxamide formate] here?
**A.** 0.533 µM

**Q.** `NCCOCCNC(=O)c1ccc(Nc2nccn3c(-c4cn(CC(F)F)nc4C(F)(F)F)cnc23)cc1Cl` [Example 252, N-[2-(2-aminoethoxy)ethyl]-2-chloro-4-[[3-[1-(2,2-difluoroethyl)-3-(trifluoromethyl)pyrazol-4-yl]imidazo[1,2-a]pyrazin-8-yl]amino] benzamide] was tested. Which IC90 did it give?
**A.** 0.169 µM

**Q.** How did the IC90 turn out when `N#CCn1cc(-c2cnc3c(Nc4ccc(C(=O)N5CCN(C(=O)NCCN)CC5)c(Cl)c4)nccn23)c(C(F)(F)F)n1` [Example 258, N-(2-aminoethyl)-4-[2-chloro-4-[[3-[1-(2-cyanomethyl)-3-(trifluoromethyl)pyrazol-4-yl]imidazo[1,2-a]pyrazin-8-yl]amino]benzoyl] piperazine-1-carboxamide formate] was run?
**A.** 0.398 µM

**Q.** `N#CCn1cc(-c2cnc3c(Nc4ccc(C(=O)N5CCN(C(=O)NCCN)CC5)c(Cl)c4)nccn23)c(C(F)(F)F)n1` [Example 264, N-(2-aminoethyl)-4-[2-chloro-4-[[3-[1-(cyanomethyl)-3-(trifluoromethyl)pyrazol-4-yl]imidazo[1,2-a]pyrazin-8-yl]amino]benzoyl] piperazine-1-carboxamide formate] was tested. Which IC90 did it give?
**A.** 0.451 µM

**Q.** Which IC90 does the source give for `NC1CC(NC(=O)N2CCN(C(=O)c3ccc(Nc4nccn5c(-c6c[nH]nc6C(F)(F)F)cnc45)cc3Cl)CC2)C1` (centres unmarked) [Example 265, N-(3-aminocyclobutyl)-4-[2-chloro-4-[[3-[3-(trifluoromethyl)-1H-pyrazol-4-yl]imidazo[1,2-a]pyrazin-8-yl]amino]benzoyl] piperazine-1-carboxamide formate] here?
**A.** 0.231 µM
